Values joined by “and” are separate entries in the source; they are usually repeats but may differ in a detail not shown here. Equal entries are not always repeated. Toxic doses and inconclusive results are not listed.
Test system: L1210 leukemia ip in BDF1 mice, survival T/C
Experiment: NCI In Vivo Anticancer Drug Screen. Data for tumor model L1210 Leukemia (intraperitoneal) in B6D2F1 (BDF1) mice
Conditions: endpoint: mean survival time, higher = longer survival
In short: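 Each compound was tested against a transplantable tumor grown in mice. The endpoint was survival, with treated animals benchmarked against vehicle controls as a simple ratio.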

[1] = dose: 100.0 mg/kg/injection, schedule: Q04DX003 (ip), vehicle: Klucel (hydroxypropylcellulose) (HPC)
[2] = dose: 200.0 mg/kg/injection, schedule: Q04DX003 (ip), vehicle: Klucel (hydroxypropylcellulose) (HPC)
[3] = dose: 100.0 mg/kg/injection, schedule: Q01DX009 (ip), vehicle: saline
[4] = dose: 200.0 mg/kg/injection, schedule: Q01DX009 (ip), vehicle: saline
[5] = dose: 400.0 mg/kg/injection, schedule: Q01DX009 (ip), vehicle: saline
[6] = dose: 100.0 mg/kg/injection, schedule: Q01DX001 (ip), vehicle: Klucel (hydroxypropylcellulose) (HPC)
[7] = dose: 200.0 mg/kg/injection, schedule: Q01DX001 (ip), vehicle: Klucel (hydroxypropylcellulose) (HPC)
[8] = dose: 400.0 mg/kg/injection, schedule: Q01DX001 (ip), vehicle: Klucel (hydroxypropylcellulose) (HPC)
[9] = dose: 200.0 mg/kg/injection, schedule: Q01DX001 (ip), vehicle: saline

c1ccc(C2SCc3ccc(cc3)Sc3ccc(cc3)CS2)cc1
T/C (dose: 100.0 mg/kg/injection, schedule: Q01DX001 (ip), vehicle: saline with Tween-80): 91 % of control | T/C (dose: 200.0 mg/kg/injection, schedule: Q01DX001 (ip), vehicle: saline with Tween-80): 88 % of control | T/C (dose: 400.0 mg/kg/injection, schedule: Q01DX001 (ip), vehicle: saline with Tween-80): 91 % of control

O=NN(CCCl)C(=O)NC1CCSc2ccccc21 (centres undefined)
T/C (dose: 18.0 mg/kg/injection, schedule: Q01DX001 (ip), vehicle: other): 170 % of control and 182 % of control and 219 % of control | T/C (dose: 26.0 mg/kg/injection, schedule: Q01DX001 (ip), vehicle: other): 232 % of control | T/C (dose: 27.0 mg/kg/injection, schedule: Q01DX001 (ip), vehicle: other): 306 % of control and 315 % of control | T/C (dose: 40.0 mg/kg/injection, schedule: Q01DX001 (ip), vehicle: other): 323 % of control and 340 % of control and 356 % of control | T/C (dose: 60.0 mg/kg/injection, schedule: Q01DX001 (ip), vehicle: other): 289 % of control and 313 % of control and 365 % of control | T/C (dose: 187.5 mg/kg/injection, schedule: Q01DX001 (ip), vehicle: other): 96 % of control

O=C(Nc1cccc(C2=NCC(O)CN2)c1)c1ccc(C(=O)Nc2cccc(C3=NCC(O)CN3)c2)c(Cl)c1 (centres undefined)
T/C (dose: 6.25 mg/kg/injection, schedule: Q01DX Z (ip), vehicle: water): 95 % of control

CCOC(=O)Nc1cc(N)c2nnn(C(c3ccccc3)c3ccccc3)c2n1
T/C [1]: 92 % of control | T/C [2]: 91 % of control | T/C (dose: 400.0 mg/kg/injection, schedule: Q04DX003 (ip), vehicle: Klucel (hydroxypropylcellulose) (HPC)): 91 % of control

Cc1ccc(N2C=Nc3ccc(C)cc3C2)cc1
T/C (dose: 100.0 mg/kg/injection, schedule: Q01DX009 (ip), vehicle: Klucel (hydroxypropylcellulose) (HPC)): 92 % of control | T/C (dose: 100.0 mg/kg/injection, schedule: Q04DX003 (ip), vehicle: other): 107 % of control | T/C (dose: 200.0 mg/kg/injection, schedule: Q01DX009 (ip), vehicle: Klucel (hydroxypropylcellulose) (HPC)): 104 % of control | T/C (dose: 200.0 mg/kg/injection, schedule: Q04DX003 (ip), vehicle: other): 90 % of control

O=C(CCCc1ccc(N(CCCl)CCCl)cc1)Nc1ccc(F)cc1
T/C (dose: 4.0 mg/kg/injection, schedule: Q12HX018 (ip), vehicle: other): 103 % of control | T/C (dose: 6.0 mg/kg/injection, schedule: Q12HX018 (ip), vehicle: other): 106 % of control | T/C (dose: 8.0 mg/kg/injection, schedule: Q12HX018 (ip), vehicle: other): 104 % of control

CC(=O)C1COC(O)C1C (centres undefined)
T/C (dose: 0.15 mg/kg/injection, schedule: Q01DX009 (ip), vehicle: saline): 102 % of control | T/C (dose: 0.31 mg/kg/injection, schedule: Q01DX009 (ip), vehicle: saline): 100 % of control | T/C (dose: 0.62 mg/kg/injection, schedule: Q01DX009 (ip), vehicle: saline): 105 % of control | T/C (dose: 1.25 mg/kg/injection, schedule: Q01DX009 (ip), vehicle: saline): 107 % of control | T/C (dose: 2.5 mg/kg/injection, schedule: Q01DX009 (ip), vehicle: saline): 112 % of control | T/C (dose: 5.0 mg/kg/injection, schedule: Q01DX001 (ip), vehicle: saline): 101 % of control | T/C (dose: 10.0 mg/kg/injection, schedule: Q01DX001 (ip), vehicle: saline): 113 % of control

Cc1c(O)ccc([N+](=O)[O-])c1O
T/C (dose: 6.25 mg/kg/injection, schedule: Q01DX009 (ip), vehicle: saline with Tween-80): 93 % of control | T/C (dose: 12.5 mg/kg/injection, schedule: Q01DX009 (ip), vehicle: saline with Tween-80): 97 % of control | T/C (dose: 25.0 mg/kg/injection, schedule: Q01DX009 (ip), vehicle: saline with Tween-80): 97 % of control

C/C=C/C(C1=C(O)c2ccccc2C(=O)C1=O)C1=C(O)c2ccccc2C(=O)C1=O
T/C (dose: 75.0 mg/kg/injection, schedule: Q01DX001 (ip), vehicle: carboxymethylcellulose (CMC)): 100 % of control | T/C (dose: 150.0 mg/kg/injection, schedule: Q01DX001 (ip), vehicle: carboxymethylcellulose (CMC)): 118 % of control | T/C (dose: 300.0 mg/kg/injection, schedule: Q01DX001 (ip), vehicle: carboxymethylcellulose (CMC)): 108 % of control

O=C(Nc1ccc(Cl)c(Cl)c1)OCC#CCOC(=O)Nc1ccc(Cl)c(Cl)c1
T/C [3]: 99 % of control | T/C [4]: 91 % of control | T/C [5]: 88 % of control

O=[N+]([O-])c1ccc(O)c(CCl)c1
T/C (dose: 50.0 mg/kg/injection, schedule: Q04DX002 (ip), vehicle: saline with Tween-80): 109 % of control | T/C (dose: 100.0 mg/kg/injection, schedule: Q04DX002 (ip), vehicle: DMSO): 107 % of control | T/C (dose: 100.0 mg/kg/injection, schedule: Q04DX002 (ip), vehicle: saline with Tween-80): 109 % of control | T/C (dose: 200.0 mg/kg/injection, schedule: Q04DX002 (ip), vehicle: DMSO): 86 % of control | T/C (dose: 200.0 mg/kg/injection, schedule: Q04DX002 (ip), vehicle: saline with Tween-80): 98 % of control | T/C (dose: 400.0 mg/kg/injection, schedule: Q04DX002 (ip), vehicle: saline with Tween-80): 104 % of control

N#CCCNCCC#N
T/C [3]: 103 % of control | T/C (dose: 100.0 mg/kg/injection, schedule: Q04DX003 (ip), vehicle: saline): 102 % of control | T/C [4]: 97 % of control | T/C (dose: 200.0 mg/kg/injection, schedule: Q04DX003 (ip), vehicle: saline): 100 % of control | T/C [5]: 104 % of control | T/C (dose: 400.0 mg/kg/injection, schedule: Q04DX003 (ip), vehicle: saline): 96 % of control

O=c1cc[nH]c2c(Cl)cccc12
T/C (dose: 50.0 mg/kg/injection, schedule: Q01DX001 (ip), vehicle: carboxymethylcellulose (CMC)): 109 % of control | T/C (dose: 100.0 mg/kg/injection, schedule: Q01DX001 (ip), vehicle: carboxymethylcellulose (CMC)): 109 % of control | T/C (dose: 200.0 mg/kg/injection, schedule: Q01DX001 (ip), vehicle: carboxymethylcellulose (CMC)): 114 % of control | T/C (dose: 400.0 mg/kg/injection, schedule: Q01DX001 (ip), vehicle: carboxymethylcellulose (CMC)): 110 % of control

CCCCCCCCCCCCCCCCC/C(CC)=N/Nc1ccc([N+](=O)[O-])cc1[N+](=O)[O-]
T/C [6]: 104 % of control | T/C [7]: 106 % of control | T/C [8]: 97 % of control

CCOP(=S)(S)OCC.[Ni]
T/C (dose: 50.0 mg/kg/injection, schedule: Q01DX001 (ip), vehicle: saline): 93 % of control | T/C (dose: 100.0 mg/kg/injection, schedule: Q01DX001 (ip), vehicle: saline): 102 % of control | T/C [9]: 100 % of control

CC[n+]1ccc(C)c2ccccc21
T/C (dose: 12.5 mg/kg/injection, schedule: Q04DX002 (ip), vehicle: saline): 102 % of control and 103 % of control | T/C (dose: 12.5 mg/kg/injection, schedule: Q04DX003 (ip), vehicle: saline): 103 % of control | T/C (dose: 25.0 mg/kg/injection, schedule: Q04DX002 (ip), vehicle: saline): 95 % of control and 98 % of control | T/C (dose: 25.0 mg/kg/injection, schedule: Q04DX003 (ip), vehicle: saline): 100 % of control | T/C (dose: 50.0 mg/kg/injection, schedule: Q04DX002 (ip), vehicle: saline): 95 % of control and 102 % of control | T/C (dose: 50.0 mg/kg/injection, schedule: Q04DX003 (ip), vehicle: saline): 105 % of control

COc1cc(C(=O)COC(C)=O)cc2c1OC(c1ccccc1)(c1ccccc1)O2
T/C [9]: 86 % of control

CCOC(CN(C(C)=O)C1(c2ccc(OC)c(OC)c2)C(=O)c2ccccc2C1=O)OCC
T/C [6]: 110 % of control | T/C [7]: 105 % of control | T/C [8]: 98 % of control

CNc1c(C)cccc1C
T/C (dose: 50.0 mg/kg/injection, schedule: Q04DX003 (ip), vehicle: Klucel (hydroxypropylcellulose) (HPC)): 105 % of control | T/C [6]: 104 % of control | T/C [1]: 94 % of control | T/C [7]: 102 % of control | T/C [2]: 101 % of control | T/C [8]: 107 % of control

— PubChem BioAssay AID248 (DTP/NCI, 2004)
